Measurements taken from patent US11716994B2, “Combinations of Yersinia entomophaga and pesticides or other substances” (priority 2017, dated 2023).
Like-named read-outs stand apart in the source and are kept apart here.

Key:
[1] = test system: fall armyworm; assay: Leaf disk mortality assay, Y. entomophaga cells with chemical insecticides; conditions: for LT50 (95% confidence intervals) in days: 4th instar; for mortality at 0.59 µg/mL: Spodoptera frugiperda, foliar; for % Mort. Chem.: fall armyworm, Flubendiamide 0.59 mg/L
[2] = test system: diamondback moth; assay: whole plant or invertebrate; conditions: flubendiamide 0.059 mg/L; for mortality at 0.059 µg/mL: Plutella xylostella, foliar, Abbott's corrected
Text: (§1) These were set to dry for 1 hr.
as §1
These were set to dry for 1 hr. Cabbage disks were then dipped in either 1% Luria broth (LB) media solution (controls and thiacloprid alone treatments) or in 1% cell free filtrate from a culture Y. entomophaga isolate O24G3R (Y. entomophaga alone or in combination with thiacloprid treatments).

[3] = test system: black cutworm; conditions: flubendiamide 0.59 mg/L
Procedure: To produce cell free filtrates, cultures of Yersinia entomophaga grown in LB medium were centrifuged at 11,448 (g) for 10 minutes. The supernatant was decanted from the centrifuged pellet and filtered through a 0.22 μm filter. Assays were performed to determine concentrations of Yen-TC (toxin complex) using ELISA, and chitinase by measuring chitinase activity on specific substrates. […] This was done to estimate relative potency of the cell free filtrates. Insects were first pre-screened with a range of dilutions of cell free filtrates to select a concentration that provided moderate activity. […] Based on these initial screens, undiluted cell free filtrate was used for cabbage looper, fall armyworm, black cutworm, and Colorado potato beetle. […] In each of the Examples below, this is expressed as 1%.
Cabbage leaf disks were dipped in either acetone (controls and Y. entomophaga alone treatments) or in indoxacarb (Sigma 33969) at 0.53 mg/L in acetone. These were set to dry for 1 hr. […] After the cabbage disks had dried for 1 hr, a single 2nd instar black cutworm was added to each individual cabbage disk. A total of 20 insects were evaluate for each treatment. Insects were observed daily and scored as live or dead.
Cabbage leaf disks were dipped in either acetone (controls and Y. entomophaga alone treatments) or in flubendiamide (Sigma 32801) at 0.59 mg/L in acetone. These were set to dry for 1 hr. […] After the cabbage disks had dried for 1 hr, a single 2nd instar black cutworm was added to each individual cabbage disk. A total of 20 insects were evaluate for each treatment. Insects were observed daily and scored as live or dead.

[4] = test system: fall armyworm; assay: Cabbage leaf disk screening of chemical insecticide rates (flubendiamide alone), mortality; type: in vivo; conditions: 3rd instar
Text: Chemical insecticides were first screened against insects at a range of rates/concentrations to determine which concentrations would provide a moderate level of activity against the insects. If the chemical rates are too high, it is difficult to observe additional effects provided by the addition of either live Y. entomophaga cells or cell free filtrates of Y. entomophaga cultures.
One example is provided for flubendiamide with fall armyworm. An initial rate was selected that would fall within an expected concentration of active ingredient per volume of water, as indicated on the label of insecticide products containing that active ingredient. For flubendiamide, a concentration of 58.5 mg/L was determined based on these criteria. To create this solution, first a 10× concentration solution was made by dissolving 58.5 mg in 100 mL of acetone. Then, 1:10 dilutions of this solution were made into acetone, resulting in concentrations of the compound of 58.5, 5.85, and 0.585 mg/L. Cabbage leaf disks were dipped in either acetone (controls) or concentrations of flubendiamide at 58.5, 5.85, or 0.585 mg/L in acetone. These were set to dry for 1 hr. […] A total of 10 insects were evaluated for each treatment. Insects were observed daily and the number of dead insects was visually determined (% Mortality).

[5] = test system: Yersinia entomophaga; assay: CFU counts after exposure of Yersinia entomophaga to insecticides; type: cell-based; conditions: 1 hour contact
Outline: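 Insecticides at 1× (label-rate based) and 5× or 10× amounts were dried from ethyl acetate as a coat inside tubes. Diluted LB-grown Y. entomophaga culture (1 ml) was added and held 1 hour on the bench. Then 100 μl was plated in triplicate on LB and colonies were counted after 48 hours at 25° C.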

[6] = test system: black cutworm; assay: Leaf disk mortality assay, Y. entomophaga cells with chemical insecticides; conditions: for % Mort. Chem.: black cutworm
[7] = 3rd instar, flubendiamide 0.20 mg/L, isolate O23ZMJ 1×10^4 cfu/mL
[8] = 3rd instar, flubendiamide 0.20 mg/L, isolate O348UX 1×10^4 cfu/mL
[9] = 3rd instar, flubendiamide 0.59 mg/L, isolate O43NEW 1×10^4 cfu/mL

## Cc1cc(C(F)(C(F)(F)F)C(F)(F)F)ccc1NC(=O)c1cccc(I)c1C(=O)NC(C)(C)CS(C)(=O)=O [Flubendiamide]
[1]; 3rd instar, flubendiamide 0.59 mg/L, isolate O43NEW 1×10^6 cfu/mL
  LT50 (95% confidence intervals): 18.28 days
[1]; flubendiamide 0.59 mg/L, isolate O23ZMJ 1×10^5 cfu/mL
  LT50 (95% confidence intervals) in days: 7.46 (6.86-8.10) days
[1]; flubendiamide 0.59 mg/L, isolate O24G3R 1×10^5 cfu/mL
  LT50 (95% confidence intervals) in days: 7.46 (6.86-8.10) days
[1]; flubendiamide 0.59 mg/L, isolate O348UX 1×10^5 cfu/mL
  LT50 (95% confidence intervals) in days: 7.46 (6.86-8.10) days
[1]; 96 h, read-out: % Mortality (4DAT), 4th instar, flubendiamide 0.59 mg/L, isolate O23ZMJ 1×10^5 cfu/mL
  mortality at 0.59 µg/mL: 0%
[1]; 96 h, read-out: % Mortality (4DAT), 4th instar, flubendiamide 0.59 mg/L, isolate O24G3R 1×10^5 cfu/mL
  mortality at 0.59 µg/mL: 0%
[1]; 96 h, read-out: % Mortality (4DAT), 4th instar, flubendiamide 0.59 mg/L, isolate O348UX 1×10^5 cfu/mL
  mortality at 0.59 µg/mL: 0%
[1]; 120 h, read-out: % Mortality (5DAT), 4th instar, flubendiamide 0.59 mg/L, isolate O348UX 1×10^5 cfu/mL
  mortality at 0.59 µg/mL: 30%
[1]; 144 h, read-out: % Mortality (6DAT), 3rd instar, flubendiamide 0.59 mg/L, isolate O43NEW 1×10^6 cfu/mL
  mortality at 0.59 µg/mL: 0%
[1]; 144 h, read-out: % Mortality (6DAT), 4th instar, flubendiamide 0.59 mg/L, isolate O24G3R 1×10^5 cfu/mL
  mortality at 0.59 µg/mL: 26%
[1]; 144 h, read-out: % Mortality (6DAT), 4th instar, flubendiamide 0.59 mg/L, isolate O348UX 1×10^5 cfu/mL
  mortality at 0.59 µg/mL: 26%
[1]; 168 h, read-out: % Mortality (7DAT), 3rd instar, flubendiamide 0.59 mg/L, isolate O43NEW 1×10^6 cfu/mL
  mortality at 0.59 µg/mL: 0%
[1]; 264 h, read-out: % Mortality (11DAT), 3rd instar, flubendiamide 0.59 mg/L, isolate O43NEW 1×10^6 cfu/mL
  mortality at 0.59 µg/mL: 18%
[1]; […], read-out: % Mortality (8DAT), 3rd instar, flubendiamide 0.59 mg/L, isolate O43NEW 1×10^6 cfu/mL
  mortality at 0.59 µg/mL: 5%
[1]; 4 DAT
  % Mort. Chem.: 26%
[1]; 6 DAT (row with O23ZMJ)
  % Mort. Chem.: 0%
[1]; 6 DAT (row with O348UX)
  % Mort. Chem.: 26%
[1]; 7 DAT
  % Mort. Chem.: 0%
[2]; 2nd instar diamondback moth, 1% O43NEW filtrate, Probit analysis
  LT50 (95% confidence intervals): 6.52 days
[2]; Diamondback moth
  LT50 Chem.: 6.52 days
[2]; Diamondback moth, 6 DAT
  % Mort. Chem.: 32%
[2]; 96 h, read-out: % Mortality (4DAT), diamondback moth, 1% O43NEW filtrate, 4 DAT
  mortality at 0.059 µg/mL: 16%
[2]; 120 h, read-out: % Mortality (5DAT), diamondback moth, 1% O43NEW filtrate, 5 DAT
  mortality at 0.059 µg/mL: 32%
[2]; 144 h, read-out: % Mortality (6DAT), diamondback moth, 1% O43NEW filtrate, 6 DAT
  mortality at 0.059 µg/mL: 32%
[2]; 168 h, read-out: % Mortality (7DAT), diamondback moth, 1% O43NEW filtrate, 7 DAT
  mortality at 0.059 µg/mL: 58%
[2]; 264 h, read-out: % Mortality (11DAT), diamondback moth, 1% O43NEW filtrate, 11 DAT
  mortality at 0.059 µg/mL: 67%
[3]; 2nd instar black cutworm, undiluted O43NEW filtrate, Probit analysis
  LT50 (95% confidence intervals): 7.05 days
[3]; Black cutworm
  LT50 Chem.: 7.05 days
[3]; Black cutworm, 7 DAT
  % Mort. Chem.: 42%
[3]; black cutworm, undiluted O43NEW filtrate, 5 DAT, Abbott's corrected
  % Mortality (5DAT): 0%
[3]; black cutworm, undiluted O43NEW filtrate, 6 DAT, Abbott's corrected
  % Mortality (6DAT): 37%
[3]; black cutworm, undiluted O43NEW filtrate, 7 DAT, Abbott's corrected
  % Mortality (7DAT): 42%
[3]; black cutworm, undiluted O43NEW filtrate, 8 DAT, Abbott's corrected
  % Mortality (8DAT): 53%
[3]; black cutworm, undiluted O43NEW filtrate, 9 DAT, Abbott's corrected
  % Mortality (9DAT): 74%
[4]; flubendiamide at 0.585 mg/L
  % Mort (4DAT): 0%
  % Mort (5DAT): 10%
  % Mort (6DAT): 10%
  % Mort (7DAT): 10%
  % Mort (8DAT): 10%
  % Mort (11DAT): 20%
  % Mort (12DAT): 30%
  LT50 (95% confidence intervals): 14.38 days
[4]; flubendiamide at 5.85 mg/L
  % Mort (4DAT): 10%
  % Mort (5DAT): 30%
  % Mort (6DAT): 90%
  % Mort (7DAT): 100%
  % Mort (8DAT): 100%
  % Mort (11DAT): 100%
  % Mort (12DAT): 100%
  LT50 (95% confidence intervals): 4.61 days
[4]; flubendiamide at 58.5 mg/L
  % Mort (4DAT): 70%
  % Mort (5DAT): 90%
  % Mort (6DAT): 100%
  % Mort (7DAT): 100%
  % Mort (8DAT): 100%
  % Mort (11DAT): 100%
  % Mort (12DAT): 100%
  LT50 (95% confidence intervals): 2.88 days
[5]; 0.5 mg insecticide
  Average CFU: 328 CFU
[5]; 5.0 mg insecticide
  Average CFU: 0 CFU
[6]; 3rd instar black cutworm, flubendiamide 0.20 mg/L, Y. entomophaga isolate O24G3R 1 × 10^4 CFU/mL, 5 DAT, Abbott's corrected
  % Mortality (5DAT): 31%
[6]; 3rd instar black cutworm, flubendiamide 0.20 mg/L, Y. entomophaga isolate O24G3R 1 × 10^4 CFU/mL, 6 DAT, Abbott's corrected
  % Mortality (6DAT): 44%
[6]; 3rd instar black cutworm, flubendiamide 0.20 mg/L, Y. entomophaga isolate O24G3R 1 × 10^4 CFU/mL, 7 DAT, Abbott's corrected
  % Mortality (7DAT): 69%
[6]; 3rd instar black cutworm, flubendiamide 0.20 mg/L, Y. entomophaga isolate O24G3R 1 × 10^4 CFU/mL, Probit analysis
  LT50 (95% confidence intervals) in days: 4.83 (4.34-5.37) days
[6]; [7]
  % Mortality (5DAT): 31%
  % Mortality (6DAT): 44%
  % Mortality (7DAT): 69%
  LT50 (95% confidence intervals) in days: 4.83 (4.34-5.37) days
[6]; [8]
  % Mortality (5DAT): 31%
  % Mortality (6DAT): 44%
  % Mortality (7DAT): 69%
  LT50 (95% confidence intervals) in days: 4.83 (4.34-5.37) days
[6]; [9]
  % Mortality (4DAT): 21%
  % Mortality (5DAT): 22%
  % Mortality (6DAT): 44%
  LT50 (95% confidence intervals) in days: 4.99 (4.53-5.48) days
[6]; Flubendiamide 0.2 mg/L, 5 DAT (row with O23ZMJ)
  % Mort. Chem.: 31%
[6]; Flubendiamide 0.2 mg/L, 5 DAT (row with O24G3R)
  % Mort. Chem.: 31%
[6]; Flubendiamide 0.2 mg/L, 5 DAT (row with O348UX)
  % Mort. Chem.: 31%
[6]; Flubendiamide 0.59 mg/L, 6 DAT
  % Mort. Chem.: 44%
